From US9206156B2, “Substituted indole derivatives” (GRÜNENTHAL GMBH, priority 2008, dated 2015)

How the values were obtained:
human μ-opiate receptor = molecular target: T1, human μ-opiate receptor (Homo sapiens, UniProt P35372); test: μ-opiate receptor binding assay with [3H] naloxone (WGA-SPA beads); settings: 1 μmol/l test substance, 1 nmol/l [3H] naloxone, CHO-K1 cell membranes expressing human μ-opiate receptor
T1 construct: purchased NEN, Zaventem, Belgium RB-HOM; host or cells: CHO-K1 cells (membrane preparation)
T1 sequence (P35372 whole entry): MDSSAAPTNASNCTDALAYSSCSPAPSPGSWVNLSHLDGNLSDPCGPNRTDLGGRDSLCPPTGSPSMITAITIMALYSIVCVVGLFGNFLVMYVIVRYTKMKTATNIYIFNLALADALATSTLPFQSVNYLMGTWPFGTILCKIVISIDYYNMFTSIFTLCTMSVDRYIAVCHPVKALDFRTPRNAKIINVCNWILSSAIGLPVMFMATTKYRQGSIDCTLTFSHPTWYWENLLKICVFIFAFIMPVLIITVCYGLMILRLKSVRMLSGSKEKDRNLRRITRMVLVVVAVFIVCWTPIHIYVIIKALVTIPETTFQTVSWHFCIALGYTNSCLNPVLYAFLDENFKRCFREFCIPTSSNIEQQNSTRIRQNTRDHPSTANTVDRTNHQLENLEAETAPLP
Method in brief: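 CHO-K1 membranes expressing human μ-opiate receptor incubated 90 min at room temperature with 1 nmol/l [3H]naloxone and WGA-SPA beads in 50 mmol/l Tris-HCl with 0.05% azide, 0.06% BSA. Non-specific binding with 25 μmol/l naloxone; % inhibition at 1 μmol/l, or IC50 converted to Ki via Cheng-Prusoff.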

ORL1 receptor = molecular target: T2, ORL1 receptor (Homo sapiens, UniProt P41146); test: ORL1 receptor binding assay with 3H-nociceptin/orphanin FQ (WGA-SPA beads); settings: c=1 μM test substance; 0.5 nM 3H-nociceptin/orphanin FQ; membranes of recombinant CHO-ORL1 cells
T2 construct: expressed in transfected cells; host or cells: CHO (recombinant CHO-ORL1 cells), membranes
T2 sequence (P41146 whole entry): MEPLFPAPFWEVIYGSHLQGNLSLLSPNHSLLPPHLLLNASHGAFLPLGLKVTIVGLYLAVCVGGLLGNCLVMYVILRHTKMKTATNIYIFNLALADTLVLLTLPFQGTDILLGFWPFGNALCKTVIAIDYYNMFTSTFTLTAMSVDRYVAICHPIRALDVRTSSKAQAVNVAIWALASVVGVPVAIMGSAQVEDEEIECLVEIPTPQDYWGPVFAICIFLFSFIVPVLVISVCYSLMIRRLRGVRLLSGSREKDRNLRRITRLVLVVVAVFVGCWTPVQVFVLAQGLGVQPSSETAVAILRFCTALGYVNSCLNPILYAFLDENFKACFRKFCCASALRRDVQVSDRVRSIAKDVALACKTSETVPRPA
Method in brief: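 Radioligand displacement on membranes from recombinant CHO-ORL1 cells, 0.5 nM 3H-nociceptin/orphanin FQ, 20 μg membrane protein per batch in 50 mM Hepes pH 7.4, 10 mM MgCl2, 1 mM EDTA. Incubated 1 h at room temperature with WGA-SPA beads, scintillation read. Reported as Ki (nM) or % inhibition at 1 μM.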

Work on CN(CCCN1CCC(c2ccccc2)(N(C)C)CC1)C(=O)c1cc2cc(F)ccc2[nH]1 [Example 53, N-(3-(4-(Dimethylamino)-4-phenylpiperidin-1-yl)propyl)-5-fluoro-N-methyl-1H-indole-2-carboxamide] yielded an inhibition at 1 µM (human μ-opiate receptor) of 90% and an inhibition at 1 µM (ORL1 receptor) of 73%.

Work on CN(C)C1(c2ccccc2)CCN(C(=O)C2CCCN(C(=O)CCc3cn(C)c4ccccc34)C2)CC1 (centres unmarked) [Example 133, 1-(3-(4-(dimethylamino)-4-phenylpiperidine-1-carbonyl)piperidin-1-yl)-3-(1-methyl-1H-indol-3-yl)propan-1-one] yielded an inhibition at 1 µM (human μ-opiate receptor) of 71% and an inhibition at 1 µM (ORL1 receptor) of 32%.

With CN(CCN1CCC(c2ccccc2)(N2CCCC2)CC1)C(=O)Cc1c[nH]c2ccc(Br)cc12 [Example 62, 2-(5-Bromo-1H-indol-3-yl)-N-methyl-N-(2-(4-phenyl-4-(pyrrolidin-1-yl)piperidin-1-yl)ethyl)acetamide] the inhibition at 1 µM (human μ-opiate receptor) was 57% and the inhibition at 1 µM (ORL1 receptor) was 14%.

CC(C)c1ccc2c(CNCCN3CCC(c4cccs4)(N(C)C)CC3)c[nH]c2c1 [Example 74, 1-(2-((6-Isopropyl-1H-indol-3-yl)methylamino)ethyl)-N,N-dimethyl-4-(thiophen-2-yl)pipendin-4-amine] showed an inhibition at 1 µM (human μ-opiate receptor) of 99% and an inhibition at 1 µM (ORL1 receptor) of 97%.

Work on CC(C)c1ccc2c(CN(C)CCCN3CCC(c4cccs4)(N(C)C)CC3)c[nH]c2c1 [Example 67, 1-(3-(((6-Isopropyl-1H-indol-3-yl)methyl)(methyl)amino)propyl)-N,N-dimethyl-4-(thiophen-2-yl)piperidin-4-amine] yielded an inhibition at 1 µM (human μ-opiate receptor) of 93% and an inhibition at 1 µM (ORL1 receptor) of 90%.

For CCCCC1(N(C)C)CCN(CCN(C)C(=O)CCc2cn(C)c3ccccc23)CC1 [Example 49, N-(2-(4-Butyl-4-(dimethylamino)piperidin-1-yl)ethyl)-N-methyl-3-(1-methyl-1H-indol-3-yl)propanamide], the inhibition at 1 µM (human μ-opiate receptor) was 52% and the inhibition at 1 µM (ORL1 receptor) was 17%.

For CN(C)C1(c2ccccc2)CCN(C(=O)C2CN(Cc3cccc4[nH]ccc34)c3ccccc32)CC1 (centres unmarked) [Example 175], the “% Inhibition (μ) at 1 μM” value (human μ-opiate receptor) was 70% and the “% Inhibition (ORL1) at 1 μM” value (ORL1 receptor) was 10%.

In the case of CN(CCN1CCC(c2ccccc2)(N(C)C)CC1)Cc1c[nH]c2ccc(Cl)cc12 [Example 183, 1-(2-(((5-chloro-1H-indol-3-yl)methyl)(methy)amino)ethyl)-N,N-dimethyl-4-phenylpiperidin-4-amine], the “% Inhibition (μ) at 1 μM” value (human μ-opiate receptor; 1 µM) is reported as 100% and the “% Inhibition (ORL1) at 1 μM” value (ORL1 receptor) is reported as 95%.

With CN(C(=O)Cc1c[nH]c2cc(F)ccc12)C(C(=O)N1CCC(c2cccs2)(N(C)C)CC1)c1ccccc1 (centres unmarked) [Example 95, N-(2-(4-(dimethylamino)-4-(thiophen-2-yl)piperidin-1-yl)-2-oxo-1-phenylethyl)-2-(6-fluoro-1H-indol-3-yl)-N-methylacetamide] the inhibition at 1 µM (human μ-opiate receptor) was 81% and the inhibition at 1 µM (ORL1 receptor) was 82%.

CN(C)C1(c2cccs2)CCN(CCNC(=O)C2CCCc3c2[nH]c2ccc(Cl)cc32)CC1 (centres unmarked) [Example 7, 6-Chloro-N-(2-(4-(dimethylamino)-4-(thiophen-2-yl)piperidin-1-yl)ethyl)-2,3,4,9-tetrahydro-1H-carbazole-1-carboxamide] was tested, and the inhibition at 1 µM (human μ-opiate receptor) was 95% and the inhibition at 1 µM (ORL1 receptor) was 62%.

For COc1ccc2[nH]c(C(=O)N(C)CCCN3CCC(c4ccccc4)(N(C)C)CC3)cc2c1 [Example 66, N-(3-(4-(Dimethylamino)-4-phenylpiperidin-1-yl)propyl)-5-methoxy-N-methyl-1H-indole-2-carboxamide], the inhibition at 1 µM (human μ-opiate receptor) was 71% and the inhibition at 1 µM (ORL1 receptor) was 33%.

With COc1ccc2[nH]cc(CN(C)CCN3CCC(c4ccccc4)(N(C)C)CC3)c2c1 [Example 75, 1-(2-(((5-Methoxy-1H-indol-3-yl)methyl)(methyl)amino)ethyl)-N,N-dimethyl-4-phenylpiperidin-4-amine] the “% Inhibition (μ) at 1 μM” value (human μ-opiate receptor; 1 µM) was 97% and the “% Inhibition (ORL1) at 1 μM” value (ORL1 receptor) was 79%.

CN(C)C1(c2ccccc2)CCN(C(=O)C2CCCN(C(=O)c3ccc4ccn(C)c4c3)C2)CC1 (centres unmarked) [Example 128, (4-(dimethylamino)-4-phenylpiperidin-1-yl)(1-(1-methyl-1H-indole-6-carbonyl)piperidin-3-yl) methanone] showed an inhibition at 1 µM (human μ-opiate receptor) of 56% and an inhibition at 1 µM (ORL1 receptor) of 39%.

CN(CCCN1CCC(c2ccccc2)(N(C)C)CC1)C(=O)CCc1cn(C)c2ccccc12 [Example 50, N-(3-(4-(Dimethylamino)-4-phenylpiperidin-1-yl)propyl)-N-methyl-3-(1-methyl-1H-indol-3-yl)propanamide] was tested, and the inhibition at 1 µM (human μ-opiate receptor) was 79% and the inhibition at 1 µM (ORL1 receptor) was 39%.

For COc1ccc2c(c1)c(CN(C)CCN1CCC(c3ccccc3)(N(C)C)CC1)c(C)n2Cc1ccccc1 [Example 77, 1-(2-(((1-Benzyl-5-methoxy-2-methyl-1H-indol-3-yl)methyl)(methyl)amino)ethyl)-N,N-dimethyl-4-phenylpiperidin-4-amine], the “% Inhibition (μ) at 1 μM” value (human μ-opiate receptor; 1 µM) was 89% and the “% Inhibition (ORL1) at 1 μM” value (ORL1 receptor) was 60%.

For CC(C)C(CC(=O)N(C)CCCN1CCC(c2ccccc2)(N(C)C)CC1)c1c[nH]c2ccccc12 (centres unmarked) [Example 34, N-(3-(4-(Dimethylamino)-4-phenylpiperidin-1-yl)propyl)-3-(1H-indol-3-yl)-N,4-dimethylpentanamide], the inhibition at 1 µM (human μ-opiate receptor) was 88% and the inhibition at 1 µM (ORL1 receptor) was 43%.

For CC(C)C(CC(=O)NC(CC(=O)N1CCC(c2cccs2)(N(C)C)CC1)c1ccccc1)c1c[nH]c2ccccc12 (centres unmarked) [Example 85, N-(3-(4-(dimethylamino)-4-(thiophen-2-yl)piperidin-1-yl)-3-oxo-1-phenylpropyl)-3-(1H-indol-3-yl)-4-methylpentanamide], the inhibition at 1 µM (human μ-opiate receptor) was 101% and the inhibition at 1 µM (ORL1 receptor) was 94%.

CN(C)C1(c2ccccc2)CCN(C(=O)CCNC(=O)c2ccc3ccn(C)c3c2)CC1 [Example 99, N-(3-(4-(dimethylamino)-4-phenylpiperidin-1-yl)-3-oxopropyl)-1-methyl-1H-indole-6-carboxamide] gave an inhibition at 1 µM (human μ-opiate receptor) of 87% and an inhibition at 1 µM (ORL1 receptor) of 71%.

In the case of CN(CCN1CCC(c2ccccc2)(N(C)C)CC1)Cc1c[nH]c2ccccc12 [Example 187, 1-(2-(((1H-indol-3-yl)methyl)(methy)amino)ethyl)-N,N-dimethyl-4-phenylpiperidin-4-amine], the “% Inhibition (μ) at 1 μM” value (human μ-opiate receptor; 1 µM) is reported as 100% and the “% Inhibition (ORL1) at 1 μM” value (ORL1 receptor) is reported as 87%.
